Experimental data taken from patent publication US6339077B1, “Substituted 4-benzylaminoquinolines and their hetero analogs, process for their preparation, pharmaceuticals containing these compounds and use thereof” (Aventis Pharma Deutschland GmbH, priority 1999, dated 2002).

Target: T1, human NHE-3 protein (expressed in the LAP1 cell line) (Homo sapiens, UniProt P48764)
T1 construct: expressed in transfected cells; host or cells: LAP1 cell line
T1 sequence (P48764 26-834): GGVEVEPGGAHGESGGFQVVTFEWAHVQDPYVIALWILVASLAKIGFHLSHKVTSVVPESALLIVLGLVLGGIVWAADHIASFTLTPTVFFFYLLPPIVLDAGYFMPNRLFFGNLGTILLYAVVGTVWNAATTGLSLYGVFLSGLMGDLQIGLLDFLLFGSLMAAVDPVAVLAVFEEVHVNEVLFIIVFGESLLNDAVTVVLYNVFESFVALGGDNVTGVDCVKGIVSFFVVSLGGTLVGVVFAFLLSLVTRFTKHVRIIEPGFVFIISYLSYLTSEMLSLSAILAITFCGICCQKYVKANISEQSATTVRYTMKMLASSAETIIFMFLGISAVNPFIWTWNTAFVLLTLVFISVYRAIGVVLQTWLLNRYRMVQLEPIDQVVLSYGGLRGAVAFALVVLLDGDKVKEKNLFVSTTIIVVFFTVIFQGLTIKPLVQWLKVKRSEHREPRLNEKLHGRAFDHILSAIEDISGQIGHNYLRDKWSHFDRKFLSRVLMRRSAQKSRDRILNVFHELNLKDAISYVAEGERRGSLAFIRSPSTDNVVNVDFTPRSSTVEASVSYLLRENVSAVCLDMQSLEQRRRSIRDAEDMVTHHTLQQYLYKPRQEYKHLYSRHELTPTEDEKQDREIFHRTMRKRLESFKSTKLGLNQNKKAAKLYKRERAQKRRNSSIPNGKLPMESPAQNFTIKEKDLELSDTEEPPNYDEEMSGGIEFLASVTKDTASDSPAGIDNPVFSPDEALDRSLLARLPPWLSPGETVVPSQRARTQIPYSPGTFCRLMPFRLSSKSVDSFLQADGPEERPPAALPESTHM
Experiment: Inhibition of sodium/proton exchanger subtype 3: recovery of intracellular pH after acidification (BCECF fluorescence)
Type: cell-based
Conditions: at 30 μM, pHi recovery as percentage of the maximum recovery
Protocol: Biological testing of the novel compounds was accomplished by measuring inhibition of the sodium/proton exchanger subtype 3.
The remaining activity of the human NHE-3 protein (expressed in the LAP1 cell line) was determined by measuring the recovery in the intracellular pH (pHi) after an acidification, which starts when the NHE is capable of functioning, even under bicarbonate-free conditions. For this purpose, the pHi was determined using the pH-sensitive fluorescent dye BCECF (Calbiochem, the precursor BCECF-AM is employed). The cells were initially loaded with BCECF. […] The intracellular acidification was induced by addition of 975 μl of an NH4Cl-free buffer (see below) to 25 μl aliquots of the cells incubated in NH4Cl buffer. The subsequent rate of pH recovery was recorded for 3 minutes. To calculate the inhibitory power of the substances tested, the cells were initially investigated in buffers in which complete or absolutely no pH recovery took place. […] Test solutions of the substances of interest were made up in the Na^+-containing buffer. Recovery of the intracellular pH at the tested concentration of a substance was expressed as a percentage of the maximum recovery.

Structure (SMILES) | remaining activity of hNHE3 [%]
CC(=O)c1c(C)nc2ccccc2c1NCc1ccccc1CCC1(O)CCC2(C)C(CC(O)C3C2CC(O)C2(C)C(C(C)CCC(=O)O)CCC32)C1 (stereo not drawn) [Example 18, 2-Methyl-3-acetyl-4-{2-[1-(3α,7α,12α-trihydroxy-10β,13β-dimethyl-17β(3-carboxy-1-methylpropyl)hexadecahydrocyclopenta[a]phenanthren-3-yl)eth-2-yl]benzylamino}quinoline] | 36
CC(=O)c1c(C)nc2ccccc2c1NCc1ccc(CCC2(O)CCC3(C)C(CC(O)C4C3CC(O)C3(C)C(C(C)CCC(=O)O)CCC43)C2)cc1 (stereo not drawn) [Example 2, 2-Methyl-3-acetyl-4-{4-[1-(3α,7α, 12α-trihydroxy-10β,13β-dimethyl-17β-(3-carboxy-1-methylpropyl)hexadecahydrocyclopenta[a]phenanthren-3-yl)eth-2-yl]benzylamino}quinoline] | 33

Same assay, conditions: pHi recovery as percentage of the maximum recovery, read-out: remaining activity of hNHE3

Structure (SMILES) | remaining activity at 30 µM [%]
CC(=O)c1c(C)nc2ccccc2c1NCc1ccc(C#CC2(O)CCC3(C)C(CC(O)C4C3CC(O)C3(C)C4CC[C@@H]3C(C)CCC(=O)O)C2)cc1Cl (stereo partly drawn) [Example 28, 2-Methyl-3-acetyl-4-{4-[1-(3α,7α,12α-trihydroxy-10β,13β-dimethyl-17β-(3-carboxy-1-methylpropyl)hexadecahydrocyclopenta[a]phenanthren-3-yl)ethyn-2-yl]-2-chlorobenzylamino}quinoline] | 69
COC(=O)c1c(C)nc2ccccc2c1NCc1ccc(C#CC2(O)CCC3(C)C(CC(O)C4C3CC(O)C3(C)C4CC[C@@H]3C(C)CCC(=O)O)C2)cc1 (stereo partly drawn) [Example 6, Methyl 2-methyl-4-{4-[1-(3α,7α,12α-trihydroxy-10β, 13β-dimethyl-17β-(3carboxy-1-methylpropyl)hexadecahydrocyclopenta[a]phenanthren-3-yl)ethyn-2-yl]benzylamino}quinoline-3-carboxylate] | 39
CC(=O)c1c(NCc2ccc(CCC3(O)CC[C@@]4(C)C(CC(O)C5C4CC(O)[C@@]4(C)C5CC[C@@H]4[C@H](C)CCC(=O)O)C3)cc2)cc(C)nc1C (stereo partly drawn) [Example 31, 2,6-Dimethyl-3-acetyl-4-{4-[1-(3α,7α,12α-trihydroxy-10β,13β-dimethyl-17β-(3-carboxy-1-methylpropyl)hexadecahydrocyclopenta[a]phenanthren-3-yl)eth-2-yl]benzylamino}pyridine] | 69
CC(=O)c1c(C)nc2ccccc2c1NCc1ccc(C#CC2(O)CCC3(C)C(CC(O)C4C3CC(O)C3(C)C4CC[C@@H]3C(C)CCC(=O)O)C2)cc1F (stereo partly drawn) [Example 26] | 52
CC(=O)c1c(C)nc2ccccc2c1NCc1ccc(CCC2(O)CCC3(C)C(CC(O)C4C3CC(O)C3(C)C4CC[C@@H]3C(C)CCC(=O)O)C2)c(F)c1 (stereo partly drawn) [Example 24, 2-Methyl-3-acetyl-4-{4-[1-(3α,7α,12α-trihydroxy-10β,13β-dimehtyl-17β-(3-carboxy-1-methylpropyl)hexadecahydrocyclopenta[a]phenanthren-3-yl)eth-2-yl]-3-fluorobenzylamino}quinoline] | 29
CC(=O)c1c(C)nc2ccccc2c1NCc1cccc(CC[C@@]2(O)CC[C@@]3(C)C(C[C@@H](O)C4C3C[C@H](O)[C@@]3(C)C4CC[C@@H]3[C@H](C)CCC(=O)NCC(=O)O)C2)c1 (stereo partly drawn) [Example 15, 2-Methyl-3-acetyl-4-{3-[1-(3α,7α,12α-trihydroxy-10β,13β-dimethyl-17β-(3-carboxymethylcarbamoyl-1-methylpropyl)hexadecahydrocyclopenta[a]phenanthren-3-yl)eth-2-yl]benzylamino}quinoline] | 65
CC(=O)c1c(NCc2ccc(C#CC3(O)CC[C@@]4(C)C(CC(O)C5C4CC(O)[C@@]4(C)C5CC[C@@H]4[C@H](C)CCC(=O)O)C3)cc2)cc(C)nc1C (stereo partly drawn) [Example 30, 2,6-Dimethyl-3-acetyl-4-{4-[1-(3α,7α,12α-trihydroxy-10β,13β-dimethyl-17β-(3-carboxy-1-methylpropyl)hexadecahydrocyclopenta[a]phenanthren-3-yl)ethyn-2-yl]benzylamino}pyridine] | 48
CC(=O)c1c(C)nc2ccccc2c1NCc1ccccc1C#CC1(O)CC[C@@]2(C)C(CC(O)C3C2CC(O)[C@@]2(C)C3CC[C@@H]2[C@H](C)CCC(=O)O)C1 (stereo partly drawn) [Example 17, 2-Methyl-3-acetyl-4-{2-[1-(3α,7α,12α-trihydroxy-10β,13β-dimethyl-17β-(3-carboxy-1-methylpropyl)hexadecahydrocyclopenta[a]phenanthren-3-yl)ethyn-2-yl]benzylamino}quinoline] | 36
CC(=O)c1c(C)nc2ccccc2c1NCc1ccc(C#CC2(O)CCC3(C)C(CC(O)C4C3CC(O)C3(C)C4CC[C@@H]3C(C)CCC(=O)O)C2)c(Cl)c1 (stereo partly drawn) [Example 25, 2-Methyl-3-acetyl-4-{4-[1-(3α,7α,12α-trihydroxy-10β,13β-dimethyl-17β-(3-carboxy-1-methylpropyl)hexadecahydrocyclopenta[a]phenanthren-3-yl)ethyn-2-yl]-3-chlorobenzylamino}quinoline] | 18
CC(=O)c1c(C)nc2ccccc2c1NCc1cccc(CC[C@@]2(O)CC[C@@]3(C)C(C[C@@H](O)C4C3C[C@H](O)[C@@]3(C)C4CC[C@@H]3[C@H](C)CCC(=O)NCCS(=O)(=O)O)C2)c1 (stereo partly drawn) [Example 16, 2-Methyl-3-acetyl-4-{3-[1-(3α,7α,12α-trihydroxy-10β,13β-dimethyl-17β(3-(2-sulfoethylcarbamoyl)-1-methylpropyl)hexadecahydrocyclopenta[a]phenanthren-3-yl)eth-2-yl]benzylamino}quinoline] | 27
CC(=O)c1c(C)nc2ccccc2c1NCc1ccc(C#CC2(O)CCC3(C)C(CC(O)C4C3CC(O)C3(C)C4CC[C@@H]3C(C)CCC(=O)O)C2)cc1 (stereo partly drawn) [Example 1, 2-Methyl-3-acetyl-4-{4-[1-(3α,7α, 12α-trihydroxy-10β, 13β-dimethyl-17β-(carboxy-1-methylpropyl)hexadecahydrocyclopenta[a]phenanthren-3-yl)ethyn-2-yl]-benzylamino}quinoline] | 26
COC(=O)CC[C@@H](C)[C@H]1CCC2C3C(C[C@H](O)[C@@]21C)[C@@]1(C)CC[C@H](OCCNC(=O)c2c(C)nc4ccccc4c2NCc2ccccc2)CC1C[C@H]3O (stereo partly drawn) [Example 3, 2-Methyl-4-aminobenzyl-N-{2-[7α, 12α-dihydroxy-10β,13β-dimethyl-17β-(3-methoxycarbonyl-1-methylpropyl)hexadecahydrocyclopenta[a]phen-anthren-3β-yloxy]ethyl}quinoline-3-carboxamide] | 22
CC(=O)c1c(C)nc2ccccc2c1NCc1ccc(CCC2(O)CCC3(C)C(CC(O)C4C3CC(O)C3(C)C4CC[C@@H]3C(C)CCC(=O)O)C2)cc1F (stereo partly drawn) [Example 27, 2-Methyl-3-acetyl-4-{4-[1-(3α,7α,12α-trihydroxy-10β,13β-dimethyl-17β-(3-carboxy-1-methylpropyl)hexadecahydrocyclopenta[a]phenanthren-3-yl)eth-2-yl]-2-fluorobenzylamino}quinoline] | 54
CC(=O)c1c(C)nc2ccccc2c1NCc1ccc(CCC2(O)CCC3(C)C(CC(O)C4C3CC(O)C3(C)C4CC[C@@H]3C(C)CCC(=O)O)C2)cc1Cl (stereo partly drawn) [Example 29, 2-Methyl-3-acetyl-4-{4-[1-(3α,7α,12α-trihydroxy-10β,13β-dimethyl-17β(3-carboxy-1-methylpropyl)hexadecahydrocyclopenta[a]phenanthren-3-yl)eth-2-yl]-2-chlorobenzylamino}quinoline] | 61
CC(=O)c1c(C)nc2ccccc2c1NCc1ccc(C#CC2(O)CCC3(C)C(CC(O)C4C3CC(O)C3(C)C4CC[C@@H]3C(C)CCC(=O)O)C2)c(F)c1 (stereo partly drawn) [Example 23, 2-Methyl-3-acetyl-4-{4-[1-(3α,7α,12α-trihydroxy-10β,13β-dimethyl-17β-(3-carboxy-1-methylpropyl)hexadecahydrocyclopenta[a]phenanthren-3-yl)ethyn-2-yl]-3-fluorobenzylamino}quinoline] | 16

Tested on: not given
Experiment: not given
Conditions: not given

Structure (SMILES) | melting point [°C]
Cc1nc2ccccc2c(NCc2ccc(C#CC3(O)CCC4(C)C(CC(O)C5C4CC(O)C4(C)C5CC[C@@H]4C(C)CCC(=O)O)C3)cc2)c1C(=O)OC(C)C (stereo partly drawn) | 150
